Experimental data taken from US20240374535A1, “COMPOSITIONS AND METHODS FOR TREATING BIOFILM DISORDERS AND INFECTIONS” (AHV International B.V., priority 2021, published 2024).

Experiments:
[1] = system: Staphylococcus epidermis ATCC 35984; test: MIC assay (planktonic growth inhibition, OD600); format: cell-based, S. epidermidis; details: 24 h at 37° C.
Outline: (§1)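 Broth microdilution in MHB-II, two-fold series from 8 mM stock solution (Tween 80/DMSO co-diluted, 2.5% in top well). Inoculum from overnight TSA colonies adjusted to OD600 0.0008 (~10^6 CFU/mL); 24 h at 37° C., growth read as OD600; three independent experiments.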

[2] = system: Pseudomonas aeruginosa ATCC 27853; test: MIC assay (planktonic growth inhibition, OD600); format: cell-based, P. aeruginosa; details: Pseudomonas aeruginosa, ATCC27853, 24 h at 37° C.
Outline: as §1

[3] = system: Staphylococcus epidermis ATCC 35984 biofilm; test: MBEC assay (biofilm eradication, CFU log reduction); format: cell-based, S. epidermidis; details: 48 h grown biofilm, 20 h treatment, CFU log reduction vs untreated
Outline: (§2)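 Biofilms were grown 48 h static at 37 °C in TSB from inocula at OD600 0.2, then treated 20 h at 37 °C with 1, 0.5, 0.25 or 0.125 mM compound in saline (Tween 80 and DMSO each 0.63–0.08%), four replicates per condition. Resuspended biofilm was serially diluted and plated on TSA for 24 h; log CFU reduction versus untreated, with ≥1 counted as significant, in two independent experiments.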

[4] = system: Pseudomonas aeruginosa ATCC 27853 biofilm; test: as above; format: cell-based, P. aeruginosa; details: 48 h grown biofilm, 20 h treatment, CFU log reduction vs untreated
Outline: as §2

[5] = system: cows with a SCC of more as 250.000 cells/ml; test: In vivo mastitis test: somatic cell count (SCC) in milk after a single oral tablet; parameters: species or system cow; details: single oral tablet (10 g), 60 days, FIG. 1
Protocol: Experiments were performed to examine the effect of compounds on the cell count or somatic cell count (SCC) in milk.
Somatic cell counts (SCC) is related to the amount of pathogens that are in the quarter visible for the immune system. The cell count of each cow was measured with the milk production registration (MPR). This MPR is done periodically every 30-40 days at all farms. The Somatic Cell Count (SCC) is a main indicator of milk quality. The majority of somatic cells are leukocytes (white blood cells)—which become present in increasing numbers in milk usually as an immune response to a mastitis-causing pathogen—and a small number of epithelial cells, which are milk-producing cells shed from inside of the udder when an infection occurs.
The SCC data was extracted from milk production registrations (MPRs). MPRs are databases showing all details (e.g. SCC) of the produced milk per individual cow. MPRs of the selected farms were available periodically. SCC is quantified as the number of cells per ml of milk. In general terms: an individual cow with a value for SCC of 100,000 or less indicates an ‘uninfected’ cow and there were no significant production losses due to subclinical mastitis. A threshold SCC above 250,000 indicates infection and counts between 100,000 to 250,000 indicate a high risk of infection.
The experiments were performed on a farm with 90 cows. Examination was performed on cell count with the above described tablets during 60 days.
Cows with a SCC of more as 250.000 cells/ml before treatment were selected for administration of a single tablet.

udder cleft wound = test: In vivo udder cleft dermatitis test: wound assessment after spray treatment; parameters: species or system cow

SMILES: O=[SH](O)=S.c1ccc(-c2ccccc2)cc1 [Di-phenyl thiosulfonate, phenyl benzene thiosulfonate]
- MIC50 ([1]; minimal concentration reducing final OD600 by 50%, read-out: S. epidermidis MIC50): 1000 µM
- MIC90 ([1]; minimal concentration reducing final OD600 by 90%, read-out: S. epidermidis MIC90): 2000 µM
- MIC50 ([2]; minimal concentration reducing final OD600 by 50%, read-out: P. aeruginosa MIC50): 2000 µM
- MIC90 ([2]; minimal concentration reducing final OD600 by 90%, read-out: P. aeruginosa MIC90): 2000 µM
- S. epidermidis MBEC mM with log reduction ≥1 [3]: 2 mM
- P. aeruginosa MBEC mM with log reduction ≥1 [4]: >4 mM
- somatic cell count (SCC) of milk [5]: significantly decreased
- inflammation of the udder cleft wound after treatment (udder cleft wound; immediately after the treatment, later infection reduced and wound healed): fast inflammation reduction
- Conclusion (effect on udder cleft wound) (udder cleft wound; over 60 days, all cows of the group): Positive effect
